Measurements published in patent publication US8486939B2, “Pyrimidinyl and 1,3,5-triazinyl benzimidazoles and their use in cancer therapy” (Pathway Therapeutics Inc., priority 2009, dated 2013).

Legend:
[1] = molecular target: p110δ/p85 (Homo sapiens, UniProt O00329); test: Inhibition of isolated enzyme (lipid kinase assay, [γ33P]ATP, TLC); assay type: biochemical; details: recombinant enzyme, 100 μM ATP, 1 hr room temperature, average of two experiments
Protocol: (§1) Compounds were evaluated for their ability to inhibit Class I PI 3-kinase enzymes p110δ/p85, p110α/p85, and p110β/p85. Reaction mixtures comprising 0.1 μg of a recombinant enzyme, 10 μg of L-α-phosphatidylinositol, and 2× Lipid Kinase Buffer (40 mM Tris-HCl, pH 7.4, 200 mM NaCl, 1 mM EDTA), which contains either DMSO only as a control or the test compound in DMSO (the final DMSO concentration is 1%), were activated by the addition of an ATP mix (5 mM MgCl2, 100 μM ATP, and 0.1 μL [γ^33P]ATP). Reactions were incubated at room temperature for 1 hr, and then stopped by the addition of 1M HCl. The lipids were then extracted using a two step procedure. Firstly, 200 μL of chloroform/methanol (1:1) was added, the biphasic reactions mixed and centrifuged briefly, and the inorganic phase was removed and discarded. Following this, 80 μL of methanol:HCl (1:1) was added and the same procedure followed. The organic phase (70 μL) was then transferred to a clean 1.6 mL tube and the reactions were dried using a Speedvac, with no heating, for […]. The reactions were spotted onto TLC plates (Merck Ltd) and developed for 1 hr in propanol-1:2 M acetic acid (13:7). The TLC plates were then dried at room temperature and quantified using a phosphorimager (StormImager, Amersham). Nine compound concentrations were used for each test compound to determine its IC50 value. Each experiment was performed twice and the average IC50 value is used herein.

[2] = molecular target: p110α/p85 (Homo sapiens, UniProt P42336); test: as above; assay type: biochemical; details: recombinant enzyme, 100 μM ATP, 1 hr room temperature, average of two experiments
Chain of p110α/p85 (P42336 whole entry): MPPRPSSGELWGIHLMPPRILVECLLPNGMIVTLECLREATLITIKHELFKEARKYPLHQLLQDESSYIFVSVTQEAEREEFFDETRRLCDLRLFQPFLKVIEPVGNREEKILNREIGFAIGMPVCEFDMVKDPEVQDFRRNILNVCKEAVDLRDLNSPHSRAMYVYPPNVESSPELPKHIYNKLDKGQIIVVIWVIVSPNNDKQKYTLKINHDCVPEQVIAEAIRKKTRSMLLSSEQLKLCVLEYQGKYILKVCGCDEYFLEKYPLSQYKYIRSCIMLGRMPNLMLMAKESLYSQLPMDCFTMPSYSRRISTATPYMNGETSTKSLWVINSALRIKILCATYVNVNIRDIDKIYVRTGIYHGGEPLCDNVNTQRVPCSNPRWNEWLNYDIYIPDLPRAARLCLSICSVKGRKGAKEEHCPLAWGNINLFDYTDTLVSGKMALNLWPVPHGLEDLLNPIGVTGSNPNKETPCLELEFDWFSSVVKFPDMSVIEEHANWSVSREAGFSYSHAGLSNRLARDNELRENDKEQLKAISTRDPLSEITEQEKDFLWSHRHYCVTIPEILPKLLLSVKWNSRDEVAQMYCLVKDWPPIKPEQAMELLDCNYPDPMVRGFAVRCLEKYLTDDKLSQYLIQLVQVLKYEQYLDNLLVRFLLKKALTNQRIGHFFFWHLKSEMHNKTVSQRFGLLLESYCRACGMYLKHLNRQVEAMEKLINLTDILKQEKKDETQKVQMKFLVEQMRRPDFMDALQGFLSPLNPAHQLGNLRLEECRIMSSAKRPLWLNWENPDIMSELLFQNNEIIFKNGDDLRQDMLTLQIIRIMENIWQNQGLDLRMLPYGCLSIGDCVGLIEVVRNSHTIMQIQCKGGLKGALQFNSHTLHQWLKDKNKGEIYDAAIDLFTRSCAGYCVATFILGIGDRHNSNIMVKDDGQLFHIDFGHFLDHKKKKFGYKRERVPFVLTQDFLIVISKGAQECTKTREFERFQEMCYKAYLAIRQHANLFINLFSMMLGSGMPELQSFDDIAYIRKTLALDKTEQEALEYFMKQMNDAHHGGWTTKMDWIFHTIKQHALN
Chain of p110α/p85 (P27986 whole entry partner): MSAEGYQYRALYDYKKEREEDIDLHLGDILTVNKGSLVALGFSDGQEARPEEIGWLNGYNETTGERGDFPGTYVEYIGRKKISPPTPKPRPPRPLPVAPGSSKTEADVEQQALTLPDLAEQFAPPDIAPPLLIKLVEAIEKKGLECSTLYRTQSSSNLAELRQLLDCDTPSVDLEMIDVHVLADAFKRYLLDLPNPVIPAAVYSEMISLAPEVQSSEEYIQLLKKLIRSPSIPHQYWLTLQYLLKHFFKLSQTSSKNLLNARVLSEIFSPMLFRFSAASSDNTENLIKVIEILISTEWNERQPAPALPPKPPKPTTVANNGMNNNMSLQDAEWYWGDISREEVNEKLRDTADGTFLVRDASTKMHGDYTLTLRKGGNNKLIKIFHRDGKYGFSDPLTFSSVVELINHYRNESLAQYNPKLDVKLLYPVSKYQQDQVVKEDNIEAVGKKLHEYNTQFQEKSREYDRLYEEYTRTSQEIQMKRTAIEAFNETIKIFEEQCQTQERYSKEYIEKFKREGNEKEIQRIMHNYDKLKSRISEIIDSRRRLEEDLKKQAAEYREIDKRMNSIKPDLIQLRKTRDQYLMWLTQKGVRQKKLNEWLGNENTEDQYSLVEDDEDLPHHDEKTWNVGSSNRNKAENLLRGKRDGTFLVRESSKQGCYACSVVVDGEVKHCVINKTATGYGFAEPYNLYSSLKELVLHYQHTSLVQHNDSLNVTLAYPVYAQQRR
Protocol: as §1

[3] = molecular target: p110β/p85 (Homo sapiens, UniProt P42338); test: as above; assay type: biochemical; details: recombinant enzyme, 100 μM ATP, 1 hr room temperature, average of two experiments
Chain of p110β/p85 (P42338 whole entry, species assumed): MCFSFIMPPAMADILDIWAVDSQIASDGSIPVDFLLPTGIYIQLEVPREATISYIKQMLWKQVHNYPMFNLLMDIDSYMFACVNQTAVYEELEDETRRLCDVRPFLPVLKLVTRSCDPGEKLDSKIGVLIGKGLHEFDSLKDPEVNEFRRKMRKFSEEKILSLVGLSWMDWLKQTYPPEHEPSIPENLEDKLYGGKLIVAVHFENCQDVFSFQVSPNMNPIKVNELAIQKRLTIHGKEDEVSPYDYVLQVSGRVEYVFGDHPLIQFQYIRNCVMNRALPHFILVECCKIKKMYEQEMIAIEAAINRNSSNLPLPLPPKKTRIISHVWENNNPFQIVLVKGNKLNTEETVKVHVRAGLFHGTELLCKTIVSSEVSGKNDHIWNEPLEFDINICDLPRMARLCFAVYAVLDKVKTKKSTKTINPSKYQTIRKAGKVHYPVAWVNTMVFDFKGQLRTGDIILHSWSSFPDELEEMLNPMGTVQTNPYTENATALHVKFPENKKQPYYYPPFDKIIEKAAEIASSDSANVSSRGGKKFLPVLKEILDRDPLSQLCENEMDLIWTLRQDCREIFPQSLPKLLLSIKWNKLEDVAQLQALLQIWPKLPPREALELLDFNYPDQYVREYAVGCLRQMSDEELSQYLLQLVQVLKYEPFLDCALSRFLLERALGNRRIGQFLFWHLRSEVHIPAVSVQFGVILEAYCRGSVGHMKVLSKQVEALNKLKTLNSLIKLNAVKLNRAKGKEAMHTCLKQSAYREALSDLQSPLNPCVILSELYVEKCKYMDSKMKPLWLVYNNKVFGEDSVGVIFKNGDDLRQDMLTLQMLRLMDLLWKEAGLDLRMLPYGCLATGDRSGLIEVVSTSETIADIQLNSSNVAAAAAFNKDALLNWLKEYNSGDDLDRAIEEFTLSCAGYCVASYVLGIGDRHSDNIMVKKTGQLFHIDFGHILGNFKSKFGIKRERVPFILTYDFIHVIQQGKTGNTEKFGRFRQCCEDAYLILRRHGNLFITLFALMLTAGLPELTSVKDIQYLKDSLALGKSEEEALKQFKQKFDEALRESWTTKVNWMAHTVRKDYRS
Chain of p110β/p85 (P27986 whole entry partner, species assumed): as the sequence (P27986 whole entry partner) above
Protocol: as §1

[4] = test system: NZOV9; test: Cellular growth inhibition (3H-thymidine incorporation); assay type: cell-based; details: Homo sapiens, five days incubation, 3H-thymidine over the last 6 hrs, read-out: Cell IC50* NZOV9
Protocol: (§2) The compounds were evaluated against two early passage human cell lines NZB5 and NZOV9 (Marshall et al., Oncol. Res. 2004, 14, 297). The cells were grown in ITS medium (α-modified minimal essential medium supplemented insulin, transferrin, selenite, and 5% fetal bovine serum) and grown on 96-well tissue culture plates under an atmosphere of 5% O2, 5% CO2, and 90% N2. Individual wells contained 500-1,000 cells (depending on the growth rate) in a volume of 150 μL. Compounds were added at 10-fold concentration steps to a maximum of 20 μM and plates were incubated for five days, with ^3H-thymidine being added over the last 6 hrs. Cells were harvested and incorporated radioactivity measured. Duplicate samples were analyzed for each compound dose with multiple control samples. Data were fitted by a least-squares method to an exponential of the form y=y0+ae^−bx, where y is the radioactivity (corrected for background and normalized to 100% of the control), x is the […], and y0, a, and b are variables, and the IC50 value defined as the compound concentration reducing ^3H-thymidine levels by 50%.

[5] = test system: NZB5; test: as above; assay type: cell-based; details: Homo sapiens, five days incubation, 3H-thymidine over the last 6 hrs, read-out: Cell IC50* NZB5
Protocol: as §2

Chain of p110δ/p85 (O00329 whole entry, species assumed): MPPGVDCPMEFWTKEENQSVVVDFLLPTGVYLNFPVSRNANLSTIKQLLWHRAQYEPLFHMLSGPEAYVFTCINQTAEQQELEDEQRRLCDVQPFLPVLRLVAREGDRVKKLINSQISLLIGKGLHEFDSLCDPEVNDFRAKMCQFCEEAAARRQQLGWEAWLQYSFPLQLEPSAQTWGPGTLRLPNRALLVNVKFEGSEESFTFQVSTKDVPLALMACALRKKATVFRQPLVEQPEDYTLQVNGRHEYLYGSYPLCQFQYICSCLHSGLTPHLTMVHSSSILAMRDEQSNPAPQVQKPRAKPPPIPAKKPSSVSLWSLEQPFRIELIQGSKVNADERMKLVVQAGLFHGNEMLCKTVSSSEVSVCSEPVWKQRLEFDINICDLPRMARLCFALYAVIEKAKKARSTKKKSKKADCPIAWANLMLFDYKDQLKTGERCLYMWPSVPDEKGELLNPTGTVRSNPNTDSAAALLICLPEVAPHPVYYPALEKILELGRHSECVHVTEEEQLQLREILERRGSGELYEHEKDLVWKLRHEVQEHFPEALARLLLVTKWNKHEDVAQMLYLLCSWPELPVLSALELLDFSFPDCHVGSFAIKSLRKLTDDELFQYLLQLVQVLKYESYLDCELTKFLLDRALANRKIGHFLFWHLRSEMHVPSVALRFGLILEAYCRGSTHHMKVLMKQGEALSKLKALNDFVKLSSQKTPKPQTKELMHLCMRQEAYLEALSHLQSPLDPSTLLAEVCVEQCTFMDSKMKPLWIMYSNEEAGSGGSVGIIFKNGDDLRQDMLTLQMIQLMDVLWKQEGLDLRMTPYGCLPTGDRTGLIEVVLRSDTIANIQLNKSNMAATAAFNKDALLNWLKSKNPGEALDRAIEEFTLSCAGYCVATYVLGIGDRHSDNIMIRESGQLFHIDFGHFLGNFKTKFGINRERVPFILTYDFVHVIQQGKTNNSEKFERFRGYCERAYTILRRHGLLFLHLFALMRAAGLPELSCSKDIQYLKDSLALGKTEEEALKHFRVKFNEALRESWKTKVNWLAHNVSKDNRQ
Chain of p110δ/p85 (P27986 whole entry partner, species assumed): as the sequence (P27986 whole entry partner) above

SMILES	melting point [°C]	IC50 [1] [nM]	IC50 [2] [nM]	IC50 [3] [nM]	IC50 [4] [nM]	IC50 [5] [nM]
CS(=O)(=O)c1nc2ccccc2n1-c1nc(Nc2cccnc2)nc(N2CCOCC2)n1 [Example 5, 4-[2-(methylsulfonyl)-1H-benzimidazol-1-yl]-6-(4-morpholinyl)-N-(3-pyridinyl)-1,3,5-triazin-2-amine]	208 to 211	< 100	100 to 1000	100 to 1000	100 to 1000	100 to 1000
CN(c1ccccc1)c1nc(N2CCOCC2)nc(-n2c(C(F)F)nc3ccccc32)n1 [Example 7, 4-[2-(difluoromethyl)-1H-benzimidazol-1-yl]-N-methyl-6-(4-morpholinyl)-N-phenyl-1,3,5-triazin-2-amine]	160 to 162	100 to 1000	100 to 1000	100 to 1000	100 to 1000	100 to 1000
CSc1nc2ccccc2n1-c1nc(Nc2cccnc2)nc(N2CCOCC2)n1 [Example 4, 4-[2-(methylsulfanyl)-1H-benzimidazol-1-yl]-6-(4-morpholinyl)-N-(3-pyridinyl)-1,3,5-triazin-2-amine]	240 to 241	100 to 1000	1000 to 10000	1000 to 10000	100 to 1000	< 100
COc1cccc2c1nc(C(F)F)n2-c1nc(Nc2ccc(N(C)C)nc2)nc(N2CCOCC2)n1 [Example 39, N^5-[4-[2-(difluoromethyl)-4-methoxy-1H-benzimidazol-1-yl]-6-(4-morpholinyl)-1,3,5-triazin-2-yl]-N^2,N^2-dimethyl-2,5-pyridinediamine]	136 to 137	< 100	< 100	100 to 1000	< 100	< 100
FC(F)c1nc2ccccc2n1-c1nc(Sc2ccccc2)nc(N2CCOCC2)n1 [Example 11, 2-(difluoromethyl)-1-[4-(4-morpholinyl)-6-(phenylsulfanyl)-1,3,5-triazin-2-yl]-1H-benzimidazole]	245 to 248	1000 to 10000	> 10000	> 10000	> 10000	> 10000
FC(F)c1nc2ccccc2n1-c1nc(Nc2cccnn2)nc(N2CCOCC2)n1 [Example 23, 4-[2-(difluoromethyl)-1H-benzimidazol-1-yl]-6-(4-morpholinyl)-N-(3-pyridazinyl)-1,3,5-triazin-2-amine]	271 to 273	< 100	< 100	100 to 1000	100 to 1000	100 to 1000
COc1ccncc1Nc1nc(N2CCOCC2)nc(-n2c(C(F)F)nc3ccccc32)n1 [Example 26, 4-[2-(difluoromethyl)-1H-benzimidazol-1-yl]-N-(4-methoxy-3-pyridinyl)-6-(4-morpholinyl)-1,3,5-triazin-2-amine]	161 to 163	< 100	< 100	100 to 1000	100 to 1000	100 to 1000
FC(F)c1nc2ccccc2n1-c1nc(NCc2ccccc2)nc(N2CCOCC2)n1 [Example 8, N-benzyl-4-[2-(difluoromethyl)-1H-benzimidazol-1-yl]-6-(4-morpholinyl)-1,3,5-triazin-2-amine]	185 to 188	< 100	100 to 1000	< 100	100 to 1000	100 to 1000
COc1ccc(Nc2nc(N3CCOCC3)nc(-n3c(C(F)F)nc4c(OC)cccc43)n2)cn1 [Example 28, 4-[2-(difluoromethyl)-4-methoxy-1H-benzimidazol-1-yl]-N-(6-methoxy-3-pyridinyl)-6-(4-morpholinyl)-1,3,5-triazin-2-amine]	201 to 202	< 100	< 100	< 100	< 100	< 100
COc1cccc2c1nc(C(F)F)n2-c1nc(N2CCOCC2)nc(N(C)c2cccnc2)n1 [Example 3, 4-[2-(difluoromethyl)-4-methoxy-1H-benzimidazol-1-yl]-N-methyl-6-(4-morpholinyl)-N-(3-pyridinyl)-1,3,5-triazin-2-amine]	200 to 201	< 100	< 100	< 100	< 100	100 to 1000
FC(F)c1nc2ccccc2n1-c1nc(Nc2cccnc2)nc(N2CCOCC2)n1 [Example 1, 4-[2-(difluoromethyl)-1H-benzimidazol-1-yl]-6-(4-morpholinyl)-N-(3-pyridinyl)-1,3,5-triazin-2-amine]	228 to 230	< 100	< 100	< 100	100 to 1000	100 to 1000
COc1ccc(Nc2nc(N3CCOCC3)nc(-n3c(C(F)F)nc4c(OC)cccc43)n2)nn1 [Example 34, 4-[2-(difluoromethyl)-4-methoxy-1H-benzimidazol-1-yl]-N-(6-methoxy-3-pyridazinyl)-6-(4-morpholinyl)-1,3,5-triazin-2-amine]	256 to 259	< 100	< 100	100 to 1000	100 to 1000	100 to 1000
FC(F)c1nc2ccccc2n1-c1nc(Oc2ccccc2)nc(N2CCOCC2)n1 [Example 10, 2-(difluoromethyl)-1-[4-(4-morpholinyl)-6-phenoxy-1,3,5-triazin-2-yl]-1H-benzimidazole]	228 to 231	1000 to 10000	> 10000	> 10000	1000 to 10000	> 10000
FC(F)c1nc2ccccc2n1-c1nc(-c2cccnc2)nc(N2CCOCC2)n1 [Example 47, 2-(difluoromethyl)-1-[4-(4-morpholinyl)-6-(3-pyridinyl)-1,3,5-triazin-2-yl]-1H-benzimidazole]	199 to 201	< 100	< 100	100 to 1000	100 to 1000	100 to 1000
Cn1cc(Nc2nc(N3CCOCC3)nc(-n3c(C(F)F)nc4ccccc43)n2)cn1 [Example 25, 4-[2-(difluoromethyl)-1H-benzimidazol-1-yl]-N-(1-methyl-1H-pyrazol-4-yl)-6-(4-morpholinyl)-1,3,5-triazin-2-amine]	225 to 226	< 100	< 100	100 to 1000	100 to 1000	100 to 1000
COc1cccc2c1nc(C(F)F)n2-c1nc(Nc2ccc(F)nc2)nc(N2CCOCC2)n1 [Example 29, 4-[2-(difluoromethyl)-4-methoxy-1H-benzimidazol-1-yl]-N-(6-fluoro-3-pyridinyl)-6-(4-morpholinyl)-1,3,5-triazin-2-amine]	261 to 263	< 100	< 100	100 to 1000	< 100	< 100
FC(F)c1nc2ccccc2n1-c1nc(Nc2ccccc2)nc(N2CCOCC2)n1 [Example 6, 4-[2-(difluoromethyl)-1H-benzimidazol-1-yl]-6-(4-morpholinyl)-N-phenyl-1,3,5-triazin-2-amine]	171 to 174	< 100	100 to 1000	100 to 1000	100 to 1000	100 to 1000
COc1cccc2c1nc(C(F)F)n2-c1nc(Nc2ccc(N)nc2)nc(N2CCOCC2)n1 [Example 37, N^5-[4-[2-(difluoromethyl)-4-methoxy-1H-benzimidazol-1-yl]-6-(4-morpholinyl)-1,3,5-triazin-2-yl]-2,5-pyridinediamine]	267 to 270	< 100	< 100	100 to 1000	< 100	< 100
COc1cc(Nc2nc(N3CCOCC3)nc(-n3c(C(F)F)nc4c(OC)cccc43)n2)ncn1 [Example 32, 4-(2-(difluoromethyl)-4-methoxy-1H-benzimidazol-1-yl)-N-(6-methoxypyrimidin-4-yl)-6-morpholino-1,3,5-triazin-2-amine]	256 to 259	< 100	< 100	100 to 1000	< 100	> 10000
